Patent US7973036B2, “2-methyl-5-imino-benzo[D][1 ,3]oxazin[5-B]pyrazole compound, preparation and use thereof” (Qingdao Huanghai Pharmaceutical Co., Ltd, priority 2008, dated 2011)

Tests used:
[1] = tested on: cerebral ischemia reperfusion model of middle cerebral artery occlusion (MCAO); experiment: Cerebral ischemia reperfusion model of middle cerebral artery occlusion (MCAO), suture method; format: in vivo, SD rats; settings: for Variation value of water content in brain (%) / brain tissue MDA content / brain tissue SOD activity / Scores of neurological defect symptoms / Cerebral infarction area (%) / Cerebral infarction area (%) (table title: brain injury): X ± SD; for Cerebral infarction area (%): Table 5; for Cerebral infarction area (%) (table title: brain injury): Table 6, brain injury
Procedure: Cerebral ischemia reperfusion model of middle cerebral artery occlusion (MCAO) was established in SD rats using the suture method of internal carotid artery. Test rats were administrated once 0.5 hours after ischemia reperfusion, then once every 2 hours, for totally three times. Neurological defect symptoms were observed 48 hours after cerebral ischemia.

[2] = Anti-DPPH free radical test (spectrophotometry at 517 nm); format: biochemical
Excerpt: Anti-DPPH Free Radical Test
2,2-diphenyl-1-picrylhydrazyl (DPPH) free radical spectrophotometry is a simple method for screening antioxidants, the principle of which is using the characteristic absorption peak of DPPH solution at 517 nm. When free radical scavengers existed, single electron pairing between free radical scavenger and DPPH allowed the absorption of DPPH disappeared, and its decoloring degree and accepted electron number present as quantitative relation, and the antioxidant activity of samples can be evaluated through the amount of cleared DPPH, so the spectrophotometry can be used for quantitative analysis.
DPPH was accurately weighed and placed in a volumetric flask, and diluted to 100 ml with 95% ethanol. The absorbance (A) of DPPH was measured at 517 nm.
DPPH standard curve was shown in FIG. 1, the linear equation of which was as follows: y=0.219x−0.0285; r=0.9994.
DPPH was accurately weighed and placed in a 100 ml volumetric flask, and diluted to 100 ml with 95% ethanol to produce the DPPH solution.
Preparation of Test Drug Solution: the Test Drug was Accurately Weighed and Placed in a 100 ml volumetric flask, dissolved with 20 ml of 95% ethanol, adjusted to pH 7.5 and diluted to 100 ml with 95% ethanol.
5.0 ml of DPPH solution and 2.0 ml test drug solution were taken and placed in a 10 ml volumetric flask, fully shaken at room temperature for a certain time followed by determination of absorption value (A) at 517 nm.
Formula for calculating DPPH free radical scavenging ability of test drug, E (mgDPPH/mg):
Formula for calculating DPPH free radical scavenging ability of test drug, V (mmolDPPH/mmol): […]

[3] = TR high dose group (6.0 mg/kg), P<0.001
[4] = TR 1.5 mg/kg, three administrations, n=7
[5] = TR 3.0 mg/kg, three administrations, n=8
[6] = TR 6.0 mg/kg, three administrations, n=8

## Cc1cc2oc(=N)c3ccccc3n2n1 [TR, 2-methyl-5-imino-benzo[d][1,3]oxazin[5-b]pyrazole]
[1]; TR 1.5 mg/kg, n=7
  Variation value of water content in brain (%): 2.1 ± 1.08 %
  brain tissue MDA content: 6.6 ± 1.30 nmol/mgprot
  brain tissue SOD activity: 107.1 ± 15.5 U/mgprot
[1]; TR 3.0 mg/kg, n=8
  Variation value of water content in brain (%): 2.0 ± 1.01 %
  brain tissue MDA content: 6.5 ± 0.81 nmol/mgprot
  brain tissue SOD activity: 121.6 ± 16.8 U/mgprot
[1]; TR 6.0 mg/kg, n=9
  Variation value of water content in brain (%): 1.2 ± 0.55 %
  brain tissue MDA content: 5.0 ± 1.10 nmol/mgprot
  brain tissue SOD activity: 132.7 ± 21.0 U/mgprot
[1]; [3]
  MDA content compared with the model group: significantly decreased
  brain injury compared with the model group: significantly reduced
  cerebral infarction area compared with the model group: significantly reduced
  water content in brain compared with the model group: significantly reduced
[1]; TR high dose group (6.0 mg/kg), P=0.007
  SOD activity compared with the model group: significantly increased
[1]; TR low dose group (1.5 mg/kg), P=0.044
  cerebral infarction area compared with the model group: significantly reduced
[1]; TR low dose group (1.5 mg/kg), P=0.086
  water content in brain compared with the model group: No obvious difference
[1]; TR low dose group (1.5 mg/kg), P=0.211
  MDA content compared with the model group: No obvious difference
[1]; TR low dose group (1.5 mg/kg), P=0.826
  SOD activity compared with the model group: No obvious difference
[1]; TR medium dose group (3.0 mg/kg), P<0.001
  cerebral infarction area compared with the model group: significantly reduced
[1]; TR medium dose group (3.0 mg/kg), P=0.001
  brain injury compared with the model group: significantly reduced
[1]; TR medium dose group (3.0 mg/kg), P=0.039
  water content in brain compared with the model group: significantly reduced
[1]; TR medium dose group (3.0 mg/kg), P=0.141
  MDA content compared with the model group: No obvious difference
[1]; TR medium dose group (3.0 mg/kg), P=0.157
  SOD activity compared with the model group: No obvious difference
[1]; Table 4 series, TR 1.5 mg/kg, three administrations, 48 hours after cerebral ischemia, n=7
  Scores of neurological defect symptoms: 1.6 ± 0.75
[1]; Table 4 series, TR 3.0 mg/kg, three administrations, 48 hours after cerebral ischemia, n=8
  Scores of neurological defect symptoms: 1.1 ± 0.44
[1]; Table 4 series, TR 6.0 mg/kg, three administrations, 48 hours after cerebral ischemia, n=8
  Scores of neurological defect symptoms: 1.0 ± 0.46
[1]; Table 4 series, TR high dose group (6.0 mg/kg), P<0.001
  neurological defect symptoms compared with the model group: significantly reduced
[1]; Table 4 series, TR low dose group (1.5 mg/kg), P=0.001
  neurological defect symptoms compared with the model group: significantly reduced
[1]; Table 4 series, TR medium dose group (3.0 mg/kg), P<0.001
  neurological defect symptoms compared with the model group: significantly reduced
[1]; [4]
  Cerebral infarction area (%): 26.5 ± 13.24 %
  Cerebral infarction area (%) (table title: brain injury): 33.6 ± 16.08 %
[1]; [5]
  Cerebral infarction area (%): 17.4 ± 10.05 %
  Cerebral infarction area (%) (table title: brain injury): 22.7 ± 12.10 %
[1]; [6]
  Cerebral infarction area (%): 6.7 ± 6.30^#& %
  Cerebral infarction area (%) (table title: brain injury): 8.1 ± 5.68^#& %
[1]; Table 7 series, TR 1.5 mg/kg, n=7
  Scores of neurological defect symptoms: 1.9 ± 0.84
[1]; Table 7 series, TR 3.0 mg/kg, n=8
  Scores of neurological defect symptoms: 1.8 ± 0.70
[1]; Table 7 series, TR 6.0 mg/kg, n=9
  Scores of neurological defect symptoms: 1.0 ± 0.58
[1]; Table 7 series, TR high dose group (6.0 mg/kg), P<0.001
  neurological defect symptoms compared with the model group: significantly relieved
[1]; Table 7 series, TR low dose group (1.5 mg/kg), P=0.001
  neurological defect symptoms compared with the model group: significantly relieved
[1]; Table 7 series, TR medium dose group (3.0 mg/kg), P<0.001
  neurological defect symptoms compared with the model group: significantly relieved
[1]; improvement of neurological defect symptoms, infarction area, brain injury, brain edema, lipid peroxidation in cerebral ischemia-reperfusion animals
  onset dose: 3 mg/kg
[2]; 30-150 min
  DPPH free radical scavenging ability with the reaction time: gradually increased
[2]; 95% ethanol, pH 7.5, room temperature, 30-150 min
  Hydrolysis in the reaction liquid with the reaction time: gradually hydrolyzed into Compound 3
[2]; 30 min
  DPPH free radical scavenging ability E, one value per sample (mean of the five concentrations): 0.419 mgDPPH/mg
  DPPH free radical scavenging ability V: 0.212 mmolDPPH/mmol
[2]; 30 min, test drug C 0.152 (Edaravone), 0.153 (Compound 1, 2), 0.159 (Compound 3) mg/100 ml
  DPPH free radical scavenging ability E: 0.409 mgDPPH/mg
[2]; 30 min, test drug C 0.304 (Edaravone), 0.305 (Compound 1, 2), 0.318 (Compound 3) mg/100 ml
  DPPH free radical scavenging ability E: 0.368 mgDPPH/mg
[2]; 30 min, test drug C 0.608 (Edaravone), 0.610 (Compound 1, 2), 0.635 (Compound 3) mg/100 ml
  DPPH free radical scavenging ability E: 0.310 mgDPPH/mg
[2]; 30 min, test drug C 1.215 (Edaravone), 1.220 (Compound 1, 2), 1.270 (Compound 3) mg/100 ml
  DPPH free radical scavenging ability E: 0.561 mgDPPH/mg
[2]; 30 min, test drug C 2.430 (Edaravone), 2.440 (Compound 1, 2), 2.540 (Compound 3) mg/100 ml
  DPPH free radical scavenging ability E: 0.445 mgDPPH/mg
